# Experimental data taken from patent US9409952B2, “Peptide-compound cyclization method” (Chugai Seiyaku Kabushiki Kaisha, priority 2011, dated 2016).
# Like-named read-outs stand apart in the source and are kept apart here. Starred links: 1 amine or outer side, 2 acyl side, 3 side chain; linkers in the order of their positions; H or OH if unused. Positions of bridges follow the written chain, without caps; N, C: chain ends. Non-standard residues stand in square brackets, D forms with d. Residues, ends and D or L forms follow the SMILES beside them. *: point of attachment. Phe(4-(CH2)5CO) = O=C([C@H](Cc1ccc(CCCCCC(=O)[*:3])cc1)N[*:1])[*:2]; Phe(3-(CH2)4CO) = O=C([C@H](Cc1cccc(CCCCC(=O)[*:3])c1)N[*:1])[*:2]; NMeF = CN[C@@H](Cc1ccccc1)C(=O)O; NMeI = CC[C@H](C)[C@H](NC)C(=O)O; NMeβAla = CN(CCC(=O)[*:2])[*:1]; NMeL = CN[C@@H](CC(C)C)C(=O)O; NMeV = CN[C@H](C(=O)O)C(C)C; NMeA = CN[C@@H](C)C(=O)O; Piperidide = C1CCN(*)CC1; dNMeA = CN[C@H](C)C(=O)O; β3hA = C[C@H](N)CC(=O)O; Sar = CNCC(=O)O; tBu = CC(C)(C)*
# Tests used:
# [1] = PAMPA (parallel artificial membrane permeability assay); format: in vitro ADME; conditions: PAMPA
# Method in brief: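 Artificial membrane was 10% (w/v) egg lecithin plus 0.5% (w/v) cholesterol in dodecane on a PVDF filter. A 10 mM DMSO stock was added at 0.5% (v/v) to donor buffer (50 mM MOPSO, pH 6.5, 5.0% glycocholic acid). After 18 h at 37 °C, LC/MS or LC/UV gave donor and acceptor levels for Pe.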
# [2] = Metabolic stability in human hepatic microsome; format: in vitro ADME; conditions: microsomes
# [3] = membrane permeation rate (Pe), 50 mM MOPSO buffer pH 6.5 with 5.0% glycocholic acid, 37° C., 18 hours, read-out: iPAMPA Pe
# [4] = pH 7.4, human hepatic microsome, NADPH(+), read-out: CL NADPH(+)
structure (smiles),measurement,setting,value
CC[C@H](C)[C@H]1C(=O)N[C@@H](COC(C)(C)C)C(=O)N[C@@H](C)CC(=O)N(C)[C@@H](C)C(=O)N(C)[C@@H](Cc2ccccc2)C(=O)N(C)CC(=O)N(C)[C@@H](CC(C)C)C(=O)N[C@@H]([C@@H](C)O)C(=O)N(C)[C@@H](C)C(=O)N(C)[C@@H](CC(C)C)C(=O)N1C [DP-779] (cyclo([NMeA][NMeF][Sar][NMeL]T[NMeA][NMeL][NMeI]S(tBu)[β3hA])),"Papp at 18 hours, 50 µM",[1]; pH 6.5,37 ×10⁻⁶ cm/s
same,microsomal CLint at 1 uM,"[2]; human, pH 7.4, CL NADPH(+)",78 µL/min/mg
CC(C)C[C@H]1C(=O)N[C@H](C(=O)N(C)[C@@H](Cc2ccccc2)C(=O)N(C)[C@@H](Cc2ccccc2)C(=O)N[C@@H](C)C(=O)N2CCCCC2)CC(=O)N[C@@H](C)C(=O)N(C)[C@@H](Cc2ccccc2)C(=O)N(C)[C@@H](CC(C)C)C(=O)N[C@@H]([C@@H](C)O)C(=O)N(C)[C@@H](C)C(=O)N(C)[C@@H](CC(C)C)C(=O)N[C@@H](C(C)C)C(=O)N1C [DP-208] (A[NMeF][NMeL]T[NMeA][NMeL]V[NMeL]D[NMeF][NMeF]A-Piperidide; lactam N-9),"Papp at 18 hours, 50 µM",[1]; [3],27 ×10⁻⁶ cm/s
same,microsomal CLint at 1 uM,[2]; [4],34 µL/min/mg
CC[C@H](C)[C@@H]1NC(=O)[C@H](CC(C)C)N(C)C(=O)[C@H](CC(C)C)N(C)C(=O)CN(C)C(=O)[C@H]([C@@H](C)O)NC(=O)[C@H](CC(C)C)N(C)C(=O)[C@H](CC(C)C)NC(=O)CCN(C)C(=O)C[C@@H](C(=O)N2CCCCC2)NC(=O)[C@H](C)NC(=O)[C@H](Cc2ccccc2)N(C)C(=O)[C@H](Cc2ccccc2)NC(=O)[C@H](CC(C)C)N(C)C1=O [DP-957] ([NMeβAla]L[NMeL]T[Sar][NMeL][NMeL]I[NMeL]F[NMeF]AD-Piperidide; lactam N-13),"Papp at 18 hours, 50 µM",[1]; [3],4 ×10⁻⁶ cm/s
same,microsomal CLint at 1 uM,[2]; [4],54 µL/min/mg
CC(C)C[C@H]1C(=O)N[C@H](C(=O)N(C)[C@@H](Cc2ccccc2)C(=O)N[C@@H](C)C(=O)N2CCCCC2)CC(=O)N(C)[C@H](C)C(=O)N(C)[C@@H](CC(C)C)C(=O)N(C)[C@@H](C)C(=O)N[C@@H]([C@@H](C)O)C(=O)N[C@@H](Cc2ccccc2)C(=O)N(C)[C@@H](Cc2ccccc2)C(=O)N[C@@H](C(C)C)C(=O)N1C [DP-381] ([dNMeA][NMeL][NMeA]TF[NMeF]V[NMeL]D[NMeF]A-Piperidide; lactam N-9),"Papp at 18 hours, 50 µM",[1]; [3],45 ×10⁻⁶ cm/s
same,microsomal CLint at 1 uM,[2]; [4],84 µL/min/mg
CC(C)C[C@H]1C(=O)N(C)[C@@H](Cc2ccccc2)C(=O)N[C@H](C(=O)N2CCCCC2)CC(=O)N(C)[C@@H](C)C(=O)N[C@@H](C)C(=O)N[C@@H]([C@@H](C)O)C(=O)N(C)[C@@H](CC(C)C)C(=O)N[C@@H](Cc2ccccc2)C(=O)N1C [DP-699] ([NMeA]AT[NMeL]F[NMeL][NMeF]D-Piperidide; lactam N-8),"Papp at 18 hours, 50 µM",[1]; [3],29 ×10⁻⁶ cm/s
same,microsomal CLint at 1 uM,[2]; [4],81 µL/min/mg
CC(C)C[C@H]1C(=O)N(C)[C@@H](C(C)C)C(=O)N[C@@H](Cc2ccccc2)C(=O)N[C@H](C(=O)N(C)[C@@H](Cc2ccccc2)C(=O)N[C@@H](C)C(=O)N2CCCCC2)CC(=O)N[C@H](C)C(=O)N[C@@H](C(C)C)C(=O)N(C)[C@@H](CC(C)C)C(=O)N[C@@H]([C@@H](C)O)C(=O)N(C)[C@@H](Cc2ccccc2)C(=O)NCC(=O)N1C [DP-291] ([dA]V[NMeL]T[NMeF]G[NMeL][NMeV]FD[NMeF]A-Piperidide; lactam N-10),"Papp at 18 hours, 50 µM",[1]; pH 6.5,14 ×10⁻⁶ cm/s
same,microsomal CLint at 1 uM,"[2]; human, pH 7.4, CL NADPH(+)",97 µL/min/mg
CC[C@H](C)[C@H]1C(=O)N[C@@H](C)C(=O)N(C)[C@@H](Cc2ccccc2)C(=O)N[C@@H]([C@@H](C)O)C(=O)N(C)[C@@H](CC(C)C)C(=O)N[C@@H](Cc2ccccc2)C(=O)N(C)[C@@H](C(C)C)C(=O)N[C@H](C(=O)N2CCCCC2)Cc2ccc(cc2)CCCCCC(=O)NCC(=O)N(C)[C@@H](CC(C)C)C(=O)N1C [DP-865] (G[NMeL][NMeI]A[NMeF]T[NMeL]F[NMeV][Phe(4-(CH2)5CO)]-Piperidide; lactam N-10),"Papp at 18 hours, 50 µM",[1]; [3],15 ×10⁻⁶ cm/s
same,microsomal CLint at 1 uM,[2]; [4],87 µL/min/mg
CC(C)C[C@H]1C(=O)N(C)[C@@H](CC(C)C)C(=O)N[C@H](C(=O)N2CCCCC2)CC(=O)N(C)[C@@H](C)C(=O)N(C)[C@@H](Cc2ccccc2)C(=O)N(C)[C@@H](CC(C)C)C(=O)N[C@@H]([C@@H](C)O)C(=O)N1C [DP-679] ([NMeA][NMeF][NMeL]T[NMeL][NMeL]D-Piperidide; lactam N-7),"Papp at 18 hours, 50 µM",[1]; [3],25 ×10⁻⁶ cm/s
same,microsomal CLint at 1 uM,[2]; [4],342 µL/min/mg
CC[C@H](C)[C@H]1C(=O)N[C@@H](Cc2ccccc2)C(=O)N(C)[C@@H](Cc2ccccc2)C(=O)N[C@@H]([C@@H](C)O)C(=O)N2CCC[C@H]2C(=O)N[C@@H](CC(C)C)C(=O)N[C@H](C(=O)N2CCCCC2)Cc2cccc(c2)CCCCC(=O)N[C@@H](C(C)C)C(=O)N(C)CC(=O)N[C@@H](CC(C)C)C(=O)N(C)[C@@H](CC(C)C)C(=O)N[C@@H](C)C(=O)N1C [DP-896] (V[Sar]L[NMeL]A[NMeI]F[NMeF]TPL[Phe(3-(CH2)4CO)]-Piperidide; lactam N-12),"Papp at 18 hours, 50 µM",[1]; [3],13 ×10⁻⁶ cm/s
same,microsomal CLint at 1 uM,[2]; [4],57 µL/min/mg
CC(C)C[C@H]1C(=O)N[C@@H]([C@@H](C)O)C(=O)N(C)[C@@H](Cc2ccccc2)C(=O)N(C)[C@@H](CC(C)C)C(=O)NCC(=O)N(C)[C@@H](C(C)C)C(=O)N[C@@H](Cc2ccccc2)C(=O)N[C@H](C(=O)N2CCCCC2)CC(=O)N(C)[C@H](C)C(=O)N[C@@H](COC(C)(C)C)C(=O)N1C [DP-260] ([dNMeA]S(tBu)[NMeL]T[NMeF][NMeL]G[NMeV]FD-Piperidide; lactam N-10),"Papp at 18 hours, 50 µM",[1]; [3],44 ×10⁻⁶ cm/s
same,microsomal CLint at 1 uM,[2]; [4],259 µL/min/mg
CC(C)C[C@H]1C(=O)N(C)[C@@H](C)C(=O)N(C)[C@@H](Cc2ccccc2)C(=O)N[C@@H]([C@@H](C)O)C(=O)N(C)[C@@H](C)C(=O)N(C)[C@@H](Cc2ccccc2)C(=O)N(C)[C@@H](C)C(=O)N[C@H](C(=O)N(C)[C@@H](Cc2ccccc2)C(=O)N[C@@H](C)C(=O)N2CCCCC2)CC(=O)N(C)[C@@H](C)C(=O)N[C@@H](C)C(=O)N(C)[C@@H](C)C(=O)N1C [DP-445] ([NMeA]A[NMeA][NMeL][NMeA][NMeF]T[NMeA][NMeF][NMeA]D[NMeF]A-Piperidide; lactam N-11),"Papp at 18 hours, 50 µM",[1]; [3],11 ×10⁻⁶ cm/s
same,microsomal CLint at 1 uM,[2]; [4],14 µL/min/mg
CC[C@H](C)[C@H]1C(=O)NCC(=O)N[C@@H](C)CC(=O)N(C)[C@H](C)C(=O)N[C@@H](Cc2ccccc2)C(=O)N(C)[C@@H](CC(C)C)C(=O)N[C@@H](COC(C)(C)C)C(=O)N[C@@H](Cc2ccccc2)C(=O)N2CCC[C@H]2C(=O)N[C@@H]([C@@H](C)O)C(=O)N[C@@H](CC(C)C)C(=O)N1C [DP-815] (cyclo(F[NMeL]S(tBu)FPTL[NMeI]G[β3hA][dNMeA])),"Papp at 18 hours, 50 µM",[1]; pH 6.5,42 ×10⁻⁶ cm/s
same,microsomal CLint at 1 uM,"[2]; human, pH 7.4, CL NADPH(+)",104 µL/min/mg
CC[C@H](C)[C@@H]1NC(=O)CCN(C)C(=O)C[C@@H](C(=O)N(C)[C@@H](Cc2ccccc2)C(=O)N(C)[C@@H](Cc2ccccc2)C(=O)N[C@@H](C)C(=O)N2CCCCC2)NC(=O)[C@H](C(C)C)N(C)C(=O)[C@H](C)NC(=O)[C@H](CC(C)C)N(C)C(=O)CN(C)C(=O)[C@H]([C@@H](C)O)NC(=O)[C@H](C)N(C)C(=O)[C@H](Cc2ccccc2)N(C)C1=O [DP-495] ([NMeβAla]I[NMeF][NMeA]T[Sar][NMeL]A[NMeV]D[NMeF][NMeF]A-Piperidide; lactam N-10),"Papp at 18 hours, 50 µM",[1]; [3],21 ×10⁻⁶ cm/s
same,microsomal CLint at 1 uM,[2]; [4],7 µL/min/mg
CC[C@H](C)[C@H](NC(=O)[C@H](CC(C)C)N(C)C(=O)[C@@H]1CCCN1C(=O)[C@H](Cc1ccccc1)N(C)C(=O)[C@@H]1CC(=O)N[C@H](C(C)C)C(=O)N[C@@H](C)C(=O)N(C)[C@@H](Cc2ccccc2)C(=O)N(C)[C@@H](C)C(=O)N[C@@H](Cc2ccccc2)C(=O)N(C)[C@@H](CC(C)C)C(=O)N[C@@H]([C@@H](C)O)C(=O)N1)C(=O)N1CCCCC1 [DP-929] ([dV]A[NMeF][NMeA]F[NMeL]TD[NMeF]P[NMeL]I-Piperidide; lactam N-8),"Papp at 18 hours, 50 µM",[1]; [3],12 ×10⁻⁶ cm/s
same,microsomal CLint at 1 uM,[2]; [4],49 µL/min/mg
CC[C@H](C)[C@@H]1NC(=O)[C@H](C)N(C)C(=O)[C@H]([C@@H](C)O)NC(=O)[C@H](C(C)C)N(C)C(=O)[C@H](CC(C)C)NC(=O)[C@H](CC(C)C)N(C)C(=O)[C@@H](C)N(C)C(=O)C[C@H](C)NC(=O)[C@H](Cc2ccccc2)NC(=O)[C@H](C)NC(=O)[C@H](Cc2ccccc2)N(C)C1=O [DP-769] (cyclo(AF[β3hA][dNMeA][NMeL]L[NMeV]T[NMeA]I[NMeF])),"Papp at 18 hours, 50 µM",[1]; pH 6.5,53 ×10⁻⁶ cm/s
same,microsomal CLint at 1 uM,"[2]; human, pH 7.4, CL NADPH(+)",78 µL/min/mg
CC(C)C[C@@H]1NC(=O)[C@H](CC(C)C)N(C)C(=O)[C@H](C)NC(=O)[C@H](C(C)C)N(C)C(=O)[C@H](C)N(C)C(=O)CN(C)C(=O)[C@H]([C@@H](C)O)NC(=O)[C@H](Cc2ccccc2)NC(=O)[C@H](CC(C)C)N(C)C(=O)[C@@H](C)N(C)C(=O)C[C@@H](C(=O)N2CCCCC2)NC1=O [DP-243] ([dNMeA][NMeL]FT[Sar][NMeA][NMeV]A[NMeL]LD-Piperidide; lactam N-11),"Papp at 18 hours, 50 µM",[1]; [3],8.4 ×10⁻⁶ cm/s
same,microsomal CLint at 1 uM,[2]; [4],32 µL/min/mg
CC(C)C[C@H]1C(=O)N[C@@H]([C@@H](C)O)C(=O)N(C)[C@@H](C)C(=O)N[C@@H](C(C)C)C(=O)N(C)[C@@H](C)C(=O)N(C)[C@@H](C)C(=O)N[C@H](C(=O)N(C)[C@@H](Cc2ccccc2)C(=O)N(C)[C@@H](Cc2ccccc2)C(=O)N[C@@H](C)C(=O)N2CCCCC2)CC(=O)N(C)[C@@H](C)C(=O)N(C)[C@@H](Cc2ccccc2)C(=O)N1C [DP-464] ([NMeA][NMeF][NMeL]T[NMeA]V[NMeA][NMeA]D[NMeF][NMeF]A-Piperidide; lactam N-9),"Papp at 18 hours, 50 µM",[1]; [3],25 ×10⁻⁶ cm/s
same,microsomal CLint at 1 uM,[2]; [4],30 µL/min/mg
